These are literature values, as cited in US20250345348A1, “AMPK ACTIVATOR (CBDA) AND SGLT2 INHIBITOR FOR METABOLIC HEALTH” (SOCIETE DES PRODUITS NESTLE S.A., priority 2022, published 2025).

Where two headings read alike, the source gives them in different places.

Take `O=C(CCc1ccc(O)cc1)c1c(O)cc(O)cc1O[C@@H]1O[C@H](CO)[C@@H](O)[C@H](O)[C@H]1O` [phlorizin, 1-(2,4-Dihydroxy-6-{[(2S,3R,4S,5S,6R)-3,4,5-trihydroxy-6-(hydroxymethyl)oxan-2-yl]oxy}phenyl)-3-(4-hydroxyphenyl)propan-1-one]: the solubility result runs as follows: (in ethanol and hot water) “soluble”; (in ether and cold water) “poorly soluble”. In addition, where the note is “prolonged exposure to aqueous solutions”, the “stability in aqueous solutions” value is “hydrolyzes to phloretin and glucose”.
